Data set [1] is described as follows: in vitro. As to conditions: human.
A short description of data set [2]: in vitro. As to conditions: hepatocytes.
A short description of data set [3]: physchem. As to conditions: octan-1-ol/water.

`Cc1cc(OCC(=O)NCc2ccccc2)c2cc(Br)ccc2n1` yielded a microsomal CLint in data set [1] (microsomes) of 126 µL/min/mg. Further, the hepatocyte CLint in data set [2] is 51.3 µL/min/1e6 cells.

`COc1ccc2nc(C)cc(OCC(=O)NCc3ccccc3)c2c1`: in data set [1] (liver microsomes), the microsomal CLint was above 150 µL/min/mg. Further, the hepatocyte CLint in data set [2] came out at 120 µL/min/1e6 cells. In data set [3] (pH 7.4, LogD7.4), this compound came in with a logD of 3.2.

In data set [1] (microsomes), `Cc1cc(OCC(=O)Nc2ccccc2)c2cc(Br)ccc2n1` registered a microsomal CLint of 123 µL/min/mg. The same compound gave a hepatocyte CLint in data set [2] above 150 µL/min/1e6 cells.

Turning to `COc1cc(Nc2nc3c(cc2F)ncn3[C@@H](CO)c2ccc(F)cn2)n[nH]1`, the microsomal CLint in data set [1] (microsomes) came out at 7.24 µL/min/mg. In data set [2], this compound came in with a hepatocyte CLint of 27.5 µL/min/1e6 cells. The logD in data set [3] (pH 7.4, LogD7.4) is 2.18.

On to `CNC(=O)c1nc(-c2ccc(Cl)c(S(=O)(=O)Nc3cccc(F)c3F)c2)cnc1N`, for which the microsomal CLint in data set [1] (liver microsomes) amounted to 51.3 µL/min/mg. In data set [2], this compound came in with a hepatocyte CLint of 19.9 µL/min/1e6 cells. This compound came in with a logD in data set [3] (pH 7.4, LogD7.4) of 2.8.

In turn, `Nc1ncnc2c1ncn2[C@@H]1O[C@H](CSCCCNC(=O)Nc2ccccc2)[C@@H](O)[C@H]1O` returned a microsomal CLint in data set [1] (microsomes) of 9.77 µL/min/mg. For the same compound, the hepatocyte CLint in data set [2] stood at 28.2 µL/min/1e6 cells. The compound further came in with a logD in data set [3] (pH 7.4, LogD7.4) of 1.9.

In data set [1] (microsomes), `COc1ccc(C#Cc2ccc([C@@H]3[C@H](CO)N4CCCCN(C(=O)Nc5cccc(F)c5)C[C@@H]34)cc2)cc1` had a microsomal CLint of 50.1 µL/min/mg. In data set [2], this compound displayed a hepatocyte CLint of 18.2 µL/min/1e6 cells.

The compound `Cc1cc2cc(C)c3nnc(SCC(=O)N4CCN(C(=O)c5ccco5)CC4)n3c2cc1C` yielded a microsomal CLint in data set [1] (liver microsomes) above 150 µL/min/mg. The hepatocyte CLint in data set [2] was found to be 57.5 µL/min/1e6 cells. In data set [3] (pH 7.4, LogD7.4), the logD is 2.8.

Take `COc1ccc(CC(=O)NC(NC(=NC#N)Nc2ccccc2C)C(C)(C)C)cc1OC` (centres undefined): the intrinsic metabolic clearance (microsomal CLint) in data set [1] (liver microsomes) was above 150 µL/min/mg. The compound further showed a hepatocyte CLint in data set [2] of 26 µL/min/1e6 cells. Further, the logD in data set [3] (pH 7.4, LogD7.4) was determined as 2.48.

In data set [1] (microsomes), `Oc1nc2c(O)ccc(CCNCCCCCCOCCc3ccccc3)c2s1` displayed a microsomal CLint of 29 µL/min/mg. This compound also returned an intrinsic metabolic clearance (hepatocyte CLint) in data set [2] of 88 µL/min/1e6 cells. The logD in data set [3] (pH 7.4, LogD7.4) is 2.21.

In the case of `COc1ccc(-c2nc3ccccc3c(=O)[nH]2)cc1`, the microsomal CLint in data set [1] (liver microsomes) is above 150 µL/min/mg. The hepatocyte CLint in data set [2] was above 150 µL/min/1e6 cells.

The compound `CCN(CC)c1ccc2cc(C(C)=O)c(=O)oc2c1` showed a microsomal CLint in data set [1] (liver microsomes) of 120 µL/min/mg. Further, the hepatocyte CLint in data set [2] was above 150 µL/min/1e6 cells. Moreover, the log distribution coefficient (logD) in data set [3] (pH 7.4, LogD7.4) was found to be 2.

`COc1nc(N)nc2c1ncn2[C@@H]1O[C@H](CO)[C@@H](O)[C@H]1O` showed an intrinsic metabolic clearance (microsomal CLint) in data set [1] (microsomes) of 42.7 µL/min/mg. Also, in data set [2], the hepatocyte CLint came to 10.5 µL/min/1e6 cells. For the same compound, the log distribution coefficient (logD) in data set [3] (pH 7.4) was -0.58.

`CCOC(=O)c1c(-c2ccccc2)nc2ccc(C)cn12` came in with a microsomal CLint in data set [1] (microsomes) above 150 µL/min/mg. Moreover, in data set [2], the hepatocyte CLint came to 126 µL/min/1e6 cells.

In data set [1] (liver microsomes), `CC1(C)[C@@H]2CC[C@@]1(CS(=O)(=O)N1CCN(c3ccc(C#N)cn3)CC1)C(=O)C2` gave a microsomal CLint of 103 µL/min/mg. For the same compound, in data set [2], the hepatocyte CLint is above 150 µL/min/1e6 cells. Besides, in data set [3] (pH 7.4, LogD7.4), the logD amounted to 2.46.

In data set [1] (liver microsomes), `COc1cc2c(Nc3ccc(F)c(Cl)c3)c(C(N)=O)cnc2cc1OCCN(C)CCO` came in with a microsomal CLint of 27.5 µL/min/mg. This compound displayed a hepatocyte CLint in data set [2] of 12.6 µL/min/1e6 cells. This compound returned a logD in data set [3] (pH 7.4, LogD7.4) of 3.2.

In data set [1] (liver microsomes), `O=C(NCC12CC3CC(CC(C3)C1)C2)c1c(Cl)ccc2nc(N3CCC[C@H](NCCc4nnn[nH]4)C3)ccc12` showed a microsomal CLint of 15 µL/min/mg. Further, in data set [2], the hepatocyte CLint was determined as 13 µL/min/1e6 cells. The logD in data set [3] (pH 7.4, LogD7.4) was found to be 3.08.

In the case of `N#Cc1cccc(NCC(=O)Nc2c(Cl)ccc3nc(N4CC[C@@H](O)C4)ccc23)c1`, in data set [1] (microsomes), the microsomal CLint was found to be 30 µL/min/mg. This compound displayed a hepatocyte CLint in data set [2] of 8 µL/min/1e6 cells. In addition, the logD in data set [3] (pH 7.4, LogD7.4) came to 2.39.

With `Cn1c(=O)c(-c2c(Cl)cccc2Cl)cc2cnc(Nc3ccc(F)cc3)nc21`, in data set [1] (microsomes), the microsomal CLint came to 132 µL/min/mg. Further, the hepatocyte CLint in data set [2] was 6.17 µL/min/1e6 cells.

In turn, `Cc1cnc(Nc2ccc(F)cc2Cl)nc1-c1c[nH]c(C(=O)N[C@H](CO)c2cccc(Cl)c2)c1` registered a microsomal CLint in data set [1] (microsomes) of 25.1 µL/min/mg. Also, the hepatocyte CLint in data set [2] is 12.9 µL/min/1e6 cells.

`CCn1c(SCC(=O)Nc2cccc(C)c2)nnc1-c1ccccc1` displayed a microsomal CLint in data set [1] (microsomes) above 150 µL/min/mg. Further, the hepatocyte CLint in data set [2] is above 150 µL/min/1e6 cells.

The compound `Cc1cc(NS(=O)(=O)c2ccc(Cl)cc2)no1` had a microsomal CLint in data set [1] (microsomes) below 3 µL/min/mg. The same compound yielded a hepatocyte CLint in data set [2] of 8.51 µL/min/1e6 cells.

Turning to `O=CN(O)CCCP(=O)(O)O` [FOSMIDOMYCIN], the intrinsic clearance (microsomal CLint) in data set [1] (liver microsomes) stood at 3.02 µL/min/mg. The compound further returned a hepatocyte CLint in data set [2] below 3 µL/min/1e6 cells.

As to `Cc1ccc2c(NC[C@](O)(CC(C)(C)c3cc(F)cc4c3OCC4)C(F)(F)F)cccc2n1` [MAPRACORAT], in data set [1] (liver microsomes), the microsomal CLint is above 150 µL/min/mg. For the same compound, the hepatocyte CLint in data set [2] amounted to 50.1 µL/min/1e6 cells.

As to `CC(C(=O)O)c1ccc(C(=O)c2cccs2)cc1` (centres undefined) [SUPROFEN], the microsomal CLint in data set [1] (microsomes) was below 3 µL/min/mg. In data set [2], this compound showed an intrinsic clearance (hepatocyte CLint) of 16 µL/min/1e6 cells.

In data set [1] (liver microsomes), `C[C@@H](O)[C@H]1C(=O)N2C(C(=O)OCOC(=O)C(C)(C)C)=C(SC3CN(C4=NCCS4)C3)[C@H](C)[C@H]12` [TEBIPENEM PIVOXIL] showed an intrinsic clearance (microsomal CLint) above 150 µL/min/mg. In addition, in data set [2], the hepatocyte CLint is above 150 µL/min/1e6 cells.

Compound `C[C@@H](O)[C@H]1C(=O)N2C(C(=O)O)=C(SC3CN(C4=NCCS4)C3)[C@H](C)[C@H]12` [TEBIPENEM] displayed a microsomal CLint in data set [1] (liver microsomes) of 23.4 µL/min/mg. Besides, in data set [2], the hepatocyte CLint is 4.79 µL/min/1e6 cells.

Consider `CC1Sc2c(C(=O)O)c(=O)c3cc(F)c(N4CCNCC4)cc3n21` (centres undefined) [ULIFLOXACIN], for which, in data set [1] (liver microsomes), the microsomal CLint was determined as 13.8 µL/min/mg. In data set [2], this compound yielded a hepatocyte CLint below 3 µL/min/1e6 cells.

What is called microsomal CLint is the capacity of the preparation to metabolise the compound, expressed as a volume cleared per time. A lower microsomal CLint goes with greater metabolic stability. As a reminder, the hepatocyte CLint is a measure of how fast metabolising enzymes remove a compound, apart from limits set by blood flow. The low end stands for slow turnover, the high end for rapid turnover. As a reminder, the logD is the decadic logarithm of the distribution of all forms, ionised or not, between an organic phase and buffer at a given pH. Low readings indicate a more hydrophilic compound, high ones a more lipophilic compound.

The values above are taken from ChEMBL document CHEMBL3301361, “Experimental in vitro DMPK and physicochemical data on a set of publicly disclosed compounds”.
